IC50, Body weight and T/C data for four compounds are collected here from ChEMBL document CHEMBL1125989, “Preparation and evaluation of optically active 4,4-difluorothreonine as a potent novel antitumor material” (Bioorg Med Chem Lett, 1991).

Molecules are shown by their SMILES. In brackets after ≈: the same amount, converted by molar mass.

Assay [1] has as its system L1210. Briefly: Tested for the effect of stereochemistry on the growth of L1210 mouse leukemia cell line in vitro. In kind it is functional, cell-based.
In assay [2] the test system is Mus musculus. The assay is described as follows: Tested for body weight of CDF1 mice bearing P388 leukemia at dose of 100 mg/kg/day on day 1. It is filed as functional.
The test system of assay [3] is Mus musculus. The assay is described as follows: Tested for body weight of CDF1 mice bearing P388 leukemia at dose of 100 mg/kg/day on day 5. In kind it is functional.
Assay [4] deals with Mus musculus. The assay is described as follows: Tested for body weight of CDF1 mice bearing P388 leukemia at dose of 20 mg/kg/day on day 1. It is filed as functional.
In assay [5] the test system is Mus musculus. The assay is described as follows: Tested for body weight of CDF1 mice bearing P388 leukemia at dose of 20 mg/kg/day on day 5. In kind it is functional.
Assay [6] has as its system Mus musculus. Briefly: Tested for body weight of CDF1 mice bearing P388 leukemia at dose of 250 mg/kg/day on day 1. In kind it is functional.
For assay [7], the system named is Mus musculus. Briefly: Tested for body weight of CDF1 mice bearing P388 leukemia at dose of 250 mg/kg/day on day 5. It is filed as functional.
For assay [8], the system named is Mus musculus. Briefly: Tested for mean survival time of tested group to that of mean survival time of control group of mice bearing P388 leukemia at dose of 100 mg/kg/day. In kind it is functional.
Assay [9] relates to Mus musculus. The assay is described as follows: Tested for mean survival time of tested group to that of mean survival time of control group of mice bearing P388 leukemia at dose of 20 mg/kg/day. In kind it is functional.
Assay [10] concerns Mus musculus. The assay is described as follows: Tested for mean survival time of tested group to that of mean survival time of control group of mice bearing P388 leukemia at dose of 250 mg/kg/day. It is filed as functional.
In assay [11] the test system is CCRF-CEM. Briefly: Concentration at 50 percent inhibition of cell growth against human leukemia CCRF CEM cell line in vitro. It is filed as functional, cell-based.
The test system of assay [12] is KB. Briefly: Concentration at 50 percent inhibition of cell growth against human cancer KB cell line in vitro. In kind it is functional, cell-based.
Assay [13] has as its system L1210. The assay is described as follows: Concentration at 50 percent inhibition of cell growth against mouse leukemia 1210 cell line in vitro. It is filed as functional, cell-based.
Assay [14] relates to PC10. Briefly: Concentration at 50 percent inhibition of cell growth against human […] cell line in vitro. It is filed as functional, cell-based.
Assay [15] deals with PC10. The assay is described as follows: Concentration at 50 percent inhibition of cell growth against human cancer PC10 cell line in vitro. It is filed as functional, cell-based.

Consider `C[C@H](O)[C@H](N)C(=O)O`, for which, in assay [1], the IC50 – broadly, the concentration needed to halve the response being measured – was found to be 2.8 µg/mL (≈ 23.5 µM). For the same compound, the Body weight is 21.3 g in assay [2]; 21.7 g in assay [3]; 22 g in assay [4]; 22 g in assay [5]; 22.7 g in [6]; 22 g in [7]. Further, the T/C (commonly the result in the treated group divided by that in the control group, in per cent) in [8] stood at 122%; in assay [9], 114%; in assay [10] it was 170%.
Take `NC(C(=O)O)C(O)C(F)F` (racemic): the 50% inhibitory concentration (IC50) came to 1.7 µg/mL (≈ 11 µM) in assay [11]; 3.3 µg/mL (≈ 21.3 µM) in assay [1]; 2.7 µg/mL (≈ 17.4 µM) in assay [12]; 1.1 µg/mL (≈ 7.09 µM) in assay [13]; 5.1 µg/mL (≈ 32.9 µM) in assay [14].
As to `C[C@@H](O)[C@@H](N)C(=O)O` [D-allothreonine], the IC50 in assay [1] was more than 100 µg/mL.
Take `O=c1[nH]cc(F)c(=O)[nH]1` [FLUOROURACIL]: the IC50 turned out to be 0.95 µg/mL (≈ 7.3 µM) in assay [11], 12.1 µg/mL (≈ 93 µM) in assay [12], 0.36 µg/mL (≈ 2.77 µM) in assay [13] and 42 µg/mL (≈ 323 µM) in assay [15].
